Test results: ChEMBL document CHEMBL3885881, “DrugMatrix”

Species: Rattus norvegicus
Experiment: DrugMatrix - Regimen: Daily Repeat
Assay type: toxicity, organism-based, Sprague-Dawley
Design: regimen Daily Repeat, gender Male, age 6-8 weeks
Details: in vivo, sc, route subcutaneous, […]; for ABSOLUTE BASOPHIL / ABSOLUTE EOSINOPHIL / ABSOLUTE LYMPHOCYTE / ABSOLUTE MONOCYTE / BASOPHIL / EOSINOPHIL / ERYTHROCYTE COUNT / HEMATOCRIT / HEMOGLOBIN / LEUKOCYTE COUNT / LYMPHOCYTE / MEAN CORPUSCULAR HEMOGLOBIN / MEAN CORPUSCULAR HEMOGLOBIN CONCENTRATION / MEAN CORPUSCULAR VOLUME / MONOCYTE / NEUTROPHIL / NUCLEATED RED BLOOD CELLS / PLATELET COUNT: tissue Blood; for ALANINE AMINOTRANSFERASE / ALBUMIN / ASPARTATE AMINOTRANSFERASE / BLOOD UREA NITROGEN / CARBON DIOXIDE / CHLORIDE / CHOLESTEROL / CREATINE PHOSPHOKINASE / CREATININE / GLUCOSE / LACTATE DEHYDROGENASE / LIPASE / PHOSPHORUS / POTASSIUM / SODIUM / TOTAL BILIRUBIN / TOTAL PROTEIN / URIC ACID: tissue Plasma
[1] = 64 mg/kg, 120 h, dose level Low, time 5 day
[2] = 636 mg/kg, 72 h, dose level High, time 3 day
[3] = 636 mg/kg, 120 h, dose level High, time 5 day

## Nc1ccc(S(N)(=O)=O)cc1 [SULFANILAMIDE]
[1]
  ABSOLUTE BASOPHIL: 0 CELLS/uL
  ABSOLUTE EOSINOPHIL: 0 CELLS/uL
  ABSOLUTE LYMPHOCYTE: 12536.33 CELLS/uL
  ABSOLUTE MONOCYTE: 42.67 CELLS/uL
  BASOPHIL: 0%
  EOSINOPHIL: 0%
  ERYTHROCYTE COUNT: 5.85 x10E6/uL
  HEMATOCRIT: 36.4%
  HEMOGLOBIN: 13.6 G/DL
  LEUKOCYTE COUNT: 13.6 x10E3/uL
  LYMPHOCYTE: 92.67%
  MEAN CORPUSCULAR HEMOGLOBIN: 23.33 pg
  MEAN CORPUSCULAR HEMOGLOBIN CONCENTRATION: 37.4 G/DL
  MEAN CORPUSCULAR VOLUME: 62.37 fL
  MONOCYTE: 0.33%
  NEUTROPHIL: 7%
  NUCLEATED RED BLOOD CELLS: 0.33 /100WBC
  PLATELET COUNT: 1318 x10E3/uL
  ALANINE AMINOTRANSFERASE: 52 u/L
  ALBUMIN: 4.03 G/DL
  ASPARTATE AMINOTRANSFERASE: 72 u/L
  BLOOD UREA NITROGEN: 15.67 mg/dL
  CARBON DIOXIDE: 26.33 mmol/L
  CHLORIDE: 105.33 MEQ/L
  CHOLESTEROL: 72.33 mg/dL
  CREATINE PHOSPHOKINASE: 187 u/L
  CREATININE: 0.27 mg/dL
  GLUCOSE: 156.33 mg/dL
  LACTATE DEHYDROGENASE: 102.33 u/L
  LIPASE: 11 u/L
  PHOSPHORUS: 12.07 mg/dL
  POTASSIUM: 7.26 MEQ/L
  SODIUM: 145.23 MEQ/L
  TOTAL BILIRUBIN: 0.23 mg/dL
  TOTAL PROTEIN: 5.9 G/DL
  URIC ACID: 1.87 mg/dL
[2]
  ABSOLUTE BASOPHIL: 0 CELLS/uL
  ABSOLUTE EOSINOPHIL: 116 CELLS/uL
  ABSOLUTE LYMPHOCYTE: 13223.33 CELLS/uL
  ABSOLUTE MONOCYTE: 374 CELLS/uL
  BASOPHIL: 0%
  EOSINOPHIL: 0.67%
  ERYTHROCYTE COUNT: 5.74 x10E6/uL
  HEMATOCRIT: 35.33%
  HEMOGLOBIN: 12.9 G/DL
  LEUKOCYTE COUNT: 15.8 x10E3/uL
  LYMPHOCYTE: 83.67%
  MEAN CORPUSCULAR HEMOGLOBIN: 22.47 pg
  MEAN CORPUSCULAR HEMOGLOBIN CONCENTRATION: 36.5 G/DL
  MEAN CORPUSCULAR VOLUME: 61.53 fL
  MONOCYTE: 2.33%
  NEUTROPHIL: 13.33%
  NUCLEATED RED BLOOD CELLS: 0 /100WBC
  PLATELET COUNT: 1297.33 x10E3/uL
  ALANINE AMINOTRANSFERASE: 71 u/L
  ALBUMIN: 3.97 G/DL
  ASPARTATE AMINOTRANSFERASE: 90.33 u/L
  BLOOD UREA NITROGEN: 18.67 mg/dL
  CARBON DIOXIDE: 25 mmol/L
  CHLORIDE: 103 MEQ/L
  CHOLESTEROL: 101.33 mg/dL
  CREATINE PHOSPHOKINASE: 400.67 u/L
  CREATININE: 0.16 mg/dL
  GLUCOSE: 181.67 mg/dL
  LACTATE DEHYDROGENASE: 100.67 u/L
  LIPASE: 10 u/L
  PHOSPHORUS: 12.37 mg/dL
  POTASSIUM: 5.81 MEQ/L
  SODIUM: 145.13 MEQ/L
  TOTAL BILIRUBIN: 0.2 mg/dL
  TOTAL PROTEIN: 5.67 G/DL
  URIC ACID: 2.4 mg/dL
[3]
  ABSOLUTE BASOPHIL: 0 CELLS/uL
  ABSOLUTE EOSINOPHIL: 129.33 CELLS/uL
  ABSOLUTE LYMPHOCYTE: 15741.33 CELLS/uL
  ABSOLUTE MONOCYTE: 353 CELLS/uL
  BASOPHIL: 0%
  EOSINOPHIL: 0.67%
  ERYTHROCYTE COUNT: 5.45 x10E6/uL
  HEMATOCRIT: 34.17%
  HEMOGLOBIN: 12.6 G/DL
  LEUKOCYTE COUNT: 18.03 x10E3/uL
  LYMPHOCYTE: 86.33%
  MEAN CORPUSCULAR HEMOGLOBIN: 23.13 pg
  MEAN CORPUSCULAR HEMOGLOBIN CONCENTRATION: 36.87 G/DL
  MEAN CORPUSCULAR VOLUME: 62.7 fL
  MONOCYTE: 2%
  NEUTROPHIL: 11%
  NUCLEATED RED BLOOD CELLS: 0 /100WBC
  PLATELET COUNT: 1550 x10E3/uL
  ALANINE AMINOTRANSFERASE: 66 u/L
  ALBUMIN: 3.8 G/DL
  ASPARTATE AMINOTRANSFERASE: 77 u/L
  BLOOD UREA NITROGEN: 21.67 mg/dL
  CARBON DIOXIDE: 26.67 mmol/L
  CHLORIDE: 105.33 MEQ/L
  CHOLESTEROL: 81.33 mg/dL
  CREATINE PHOSPHOKINASE: 230.33 u/L
  CREATININE: 0.16 mg/dL
  GLUCOSE: 165.33 mg/dL
  LACTATE DEHYDROGENASE: 107.33 u/L
  LIPASE: 9 u/L
  PHOSPHORUS: 12.53 mg/dL
  POTASSIUM: 7.05 MEQ/L
  SODIUM: 144.3 MEQ/L
  TOTAL BILIRUBIN: 0.2 mg/dL
  TOTAL PROTEIN: 5.63 G/DL
  URIC ACID: 1.93 mg/dL
